Patent US20230390386A1, “REPLICATION-DEFECTIVE VACCINES AND USES THEREOF” (priority 2020, published 2023)

Key:
[1] = tested on: VZV-Luc; assay: CM treated VZV-Luc growth in human fetal skin implants of SCID-hu mouse model; type: in vivo; settings: for VZV growth in implanted skin tissues: 10^3 PFU, 12 days
From the text: SCID mice of arbitrary sex, 6-8 weeks old were used to produce the SCID-hu mouse model by implanting human fetal skin under the mouse skin as described previously to study the therapeutic efficacy of CM on the VZV replication and attenuation. The human fetal skin tissues were acquired from Advance Biosciences Resources (Alameda, CA) and processed as described previously (Selariu, Anca et al. “ORF7 of varicella-zoster virus is a neurotropic factor.” Journal of virology vol. 86, 16 (2012): 8614-24.). The VZV-Luc was treated with CM of 10.0 μM, and 1.0 μM followed by washing with DMEM media to remove CM. The acyclovir (30 mg/kg) was used as a positive control. VZV-Luc treated with drug vehicle was used as a mock. The viral load was determined every 48 hours as total photon counts in the infected implanted tissues. The total photon counts were determined using IVIS imaging of infected animals as represented in FIGS. 10A and 10B. The image of one mouse from each group is shown in FIG. 10B after 12 days of post-treatment. Four weeks after implantation, the implanted human tissues were surgically exposed and inoculated with 10^3 PFU of VZV-Luc. Luciferase activity within the implants was measured every 48 h for 12 days using the IVIS200 imaging system and Live Image software.

[2] = tested on: VZV-Luc; assay: Cell-free VZV-Luc growth curve in ARPE-19 cells after CM treatment; type: cell-based, varicella zoster virus; settings: for VZV-Luc growth and spread: two hours at RT, ARPE-19 cells
Procedure: Cell-free Varicella-zoster virus (VZV) treatment with the CM: VZV is a cell-associated virus. The efficacy of CM on VZV was checked using growth curve analysis. VZV-GFP-Luc was used to check the effect of CM on the virus. The ARPE-19 cells were seeded in 6-well plate and maintained at 37° C. and 5% CO2. The cell-free virus was treated with different concentration of CM (centanamycin (100 μM, 10 μM, and 0.1 μM) for two hours at RT and washed with three times with cDMEM prior to adding to the cells. The virus load in the infected cells was determined by adding luciferin substrate and measuring relative luciferase units every 24 hours of post-infection. The control included the cells infected with the virus without CM treatment. Viability of infected cells was quantified using the Cell Counting Kit-8 (Sigma# 96992) according to the manufacturers protocol.
Subsequent studies then evaluated the effect of CM treatment on the replication and growth of human alphaherpesvirus-3, also known as varicella zoster virus (VZV), under in vitro conditions in human epithelial ARPE-19 cells. The VZV is a highly cell associated virus and it is transmitted by cell-cell spread. The cell-free, luciferase-expressing VZV-Luc was treated with different concentration of CM (100 μM, 10 μM, 1.0 μM, and 0.1 μM) for two hours at RT. After two hours, the virus was added to the ARPE-19 cells. […] As compared to the CMV which can be attenuated with 1 μM CM, VZV is attenuated with 10 μM CM and this is because VZV is a cell associated virus and CM needs to cross the cell membrane to bind the virus and completely attenuates the VZV.

[3] = tested on: MCMV-Luc; assay: In vivo analysis of CM treated MCMV-Luc injected into mice (IVIS); settings: 1×10^5 pfu intraperitoneally
Procedure: In vivo experiments: To check the efficacy of CM in the animal model, mouse cytomegalovirus expressing the luciferase gene (MCMVLuc) was used. […] The 25×10^6 PFU/ml of MCMVLuc viruses were treated with 10 μM, 1.0 μM, and 0.1 μM of CM for two hours at room temperature. The MCMVLuc viruses were washed with RPMI to remove CM and suspended in 1 ml of incomplete RPMI. Thereafter, 200 μl of the CM treated MCMVLuc was injected into five mice per group. The luciferase activity was measured every other day using bioluminescence assay by an in vivo imaging system (IVIS). Briefly, the mice were anesthetized using isoflurane and injected with the luciferin substrate. The injected mice were incubated at RT for five minutes and luciferase activity was determined using IVIS. In control experiments, the MCMVLuc viruses were treated with PET only and followed in a similar way as described above.
The MCMV-Luc virus was purified using a sucrose gradient and titrated. Following purification, 5×10^5 pfu of MCMV-Luc was treated with 10 μM, 1 μM and 0.1 μM of CM for 2 hours at RT. Thereafter, treated 1×10^5 pfu were injected intraperitoneally into five mice for each concentration. […] During this attenuated infection, the mouse immune system had sufficient time to recognize the virus as a foreign antigen and generate antibodies specific for the virus. Moreover, since the attenuated MCMV-Luc was whole viral particles, they contained all possible antigens relevant to priming a protective humeral response. As expected, the MCMV-Luc viral particles that were not treated with CM treatment replicated rapidly in the host mice, as observed by IVIS imaging in FIG. 4B.

[4] = tested on: AD169-GFP; assay: AD169-GFP fluorescence microscopy in ARPE-19 cells after CM treatment of virus; type: cell-based, human cytomegalovirus
Procedure: Fluorescence microscopy: The AD169-GFP viruses were incubated with 100 μM, 10 μM, 1.0 μM, and 0.1 μM of centanamycin as described above. After treatment, the AD169-GFP viruses were washed 3 times with the cDMEM and added to the ARPE-19 cells at an MOI of 0.05. The virus growth was analyzed every day by fluorescence microscopy. In a control experiment, the viruses were only treated with the PET vehicle.
To understand the pathology of CM treated virus, a GFP-expressing human cytomegalovirus, AD169-GFP, was used with microscopic imaging to visually assess the ability of treated viruses to infect cell.

[5] = VZV-Luc treated with 10.0 μM CM

## COc1cc2cc(C(=O)Nc3cc(N)c4ccccc4c3CCCl)[nH]c2c(OC)c1OC [CM, centanamycin]
[1]; VZV-Luc treated with 1.0 μM CM
  VZV growth in implanted skin tissues: growing very slowly and have growth defects
[1]; [5]
  Luciferase activity (viral load) in implanted tissues: no luciferase activity in implanted tissues
  VZV growth in implanted skin tissues: did not grow in skin implants
[2]
  CM concentration that attenuates VZV: 10 µM
[2]; cell-free virus treated with 0.1 μM CM
  VZV-Luc growth and spread: infect as well as spread to the adjacent cells but with reduced growth
[2]; cell-free virus treated with 1.0 μM CM
  VZV-Luc growth and spread: infect as well as spread to the adjacent cells but with reduced growth
[2]; cell-free virus treated with 10.0 μM CM
  VZV-Luc growth and spread: allowed the virus to infect the cells but not to spread to the adjacent cells
[2]; cell-free virus treated with 100 μM CM
  VZV-Luc growth and spread: completely inhibit the growth as well as replication
[3]; virus treated with 0.1 μM CM
  MCMV-Luc infection and replication in mice (IVIS): able to infect the mice but did not replicate further from the site of infection
[3]; virus treated with 1 μM CM
  MCMV-Luc infection and replication in mice (IVIS): able to infect the mice but did not replicate further from the site of infection
[3]; virus treated with 10 μM CM
  MCMV-Luc infection and replication in mice (IVIS): did not infect the mice
[4]; virus treated with 1 μM CM
  AD169-GFP infection and replication (GFP fluorescence): detected in the infected cells but did not replicate
[4]; virus treated with 10 μM CM
  AD169-GFP infection and replication (GFP fluorescence): not able to infect the cells
[4]; virus treated with 100 μM CM
  AD169-GFP infection and replication (GFP fluorescence): not detected in the infected cells
